Read-outs that look alike come from different tables or passages of the source.
Key:
[1] = biological target: Cks1-Skp2 protein-protein interaction (Homo sapiens, UniProt P61024+Q13309); assay: Cks1-Skp2 protein-protein interaction ELISA; format: binding
Excerpt: In vitro binding of Skp2 to Cks1 was established in an ELISA assay format, with Cks1 protein immobilized on a 384-well plate and binding of Skp1/Skp2 to Cks1 detected by anti-Skp2 immunoreaction.

[2] = tested on: lung tumor cell line A549; assay: Inhibition of tumor cell growth, A549; format: cell-based
fibrosarcoma HT1080 = assay: Inhibition of tumor cell growth, HT1080; format: cell-based
[3] = ELISA, Cks1 immobilized, Skp1/Skp2 binding detected by anti-Skp2, read-out: Cks1-Skp2 (μM), potency in the interaction assay
[4] = Table 3, read-out: IC50 Cks1-Skp2
[5] = sulfonamide analogues, Table 2, read-out: Potency in the Cks1-Skp2 interaction assay

Cks1-Skp2 protein-protein interaction, sequence (P61024 whole entry): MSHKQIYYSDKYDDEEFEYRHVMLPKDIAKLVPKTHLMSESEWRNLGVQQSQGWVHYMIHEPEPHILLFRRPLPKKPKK
Cks1-Skp2 protein-protein interaction, sequence (Q13309 whole entry): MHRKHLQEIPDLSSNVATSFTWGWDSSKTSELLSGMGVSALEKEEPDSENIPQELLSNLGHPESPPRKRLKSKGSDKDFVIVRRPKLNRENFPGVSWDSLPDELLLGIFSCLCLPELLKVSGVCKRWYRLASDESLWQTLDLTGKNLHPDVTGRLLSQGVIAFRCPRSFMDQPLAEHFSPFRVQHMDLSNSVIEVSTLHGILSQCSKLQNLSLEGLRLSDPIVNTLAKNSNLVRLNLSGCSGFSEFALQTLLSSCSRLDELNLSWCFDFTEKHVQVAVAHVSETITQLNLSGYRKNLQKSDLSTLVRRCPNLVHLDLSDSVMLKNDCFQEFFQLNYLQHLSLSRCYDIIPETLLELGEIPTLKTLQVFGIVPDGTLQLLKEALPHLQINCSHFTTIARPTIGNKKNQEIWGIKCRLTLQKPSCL

Compound | IC50 [1, 3] [µM] | IC50 [1, 4] [µM] | IC50 [2] [nM] | IC50 (fibrosarcoma HT1080) [nM] | IC50 ([2]; Homo sapiens) [nM] | IC50 (fibrosarcoma HT1080; Homo sapiens, HT-1080) [nM] | IC50 [1, 5] [µM]
Cc1ccc(S(=O)(=O)Nc2cc(Oc3cccc(C#N)c3)cc3cccnc23)cc1 [Compound 14, N-(6-(3-cyanophenoxy)quinolin-8-yl)-4-methylbenzenesulfonamide] | 1.74 | 1.74 | 6480 | 6830 |  |  | 
Cc1ccc(S(=O)(=O)Nc2ccc(-c3ccsc3)c3cccnc23)cc1 [Compound 7, 4-methyl-N-(5-(thiophen-3-yl)quinolin-8-yl)benzenesulfonamide] | 5.54 | 5.54 |  |  | 2360 | 640 | 
Cc1ccc(S(=O)(=O)Nc2ccc(-c3ccccc3)c3cccnc23)cc1 [Compound 4, 4-methyl-N-(5-phenylquinolin-8-yl)benzenesulfonamide] | 0.54 | 0.54 |  |  | 2360 | 1640 | 
COc1ccc(Oc2cc(NS(=O)(=O)c3ccc(C)cc3)c3ncccc3c2)cc1 [Compound 13, N-(6-(4-methoxyphenoxy)quinolin-8-yl)-4-methylbenzenesulfonamide] | 1.15 | 1.15 | 4090 | 740 |  |  | 
4-methoxy-N-(5-(pyridin-3-yl)quinolin-8-yl)benzenesulfonamide [Compound 29] |  | 2.45 | 3060 | 1320 |  |  | 2.45
Cc1ccc(S(=O)(=O)Nc2ccc(-c3cccnc3)c3cccnc23)cc1 [Compound 6, 4-methyl-N-(5-(pyridin-3-yl)quinolin-8-yl)benzenesulfonamide] | 1.73 | 1.73 |  |  | 6020 | 4220 | 
Cc1ccc(S(=O)(=O)Nc2ccc(-c3cc4ccccc4s3)c3cccnc23)cc1 [Compound 8, N-(5-(benzo[b]thiophen-2-yl)quinolin-8-yl)-4-methylbenzenesulfonamide] | 7.84 | 7.84 |  |  | 390 | 150 | 
Cc1ccc(S(=O)(=O)Nc2ccc(-c3ccco3)c3cccnc23)cc1 [Compound 5, N-(5-(furan-2-yl)quinolin-8-yl)-4-methylbenzenesulfonamide] | 0.55 | 0.55 |  |  | 26000 | 9780 | 
CS(=O)(=O)Nc1ccc(-c2ccccc2)c2cccnc12 [Compound 15, N-(5-phenylquinolin-8-yl)methanesulfonamide] |  |  |  |  |  |  | 2.2
Cc1ccc(S(=O)(=O)Nc2cc(Oc3cc(F)cc(F)c3)cc3cccnc23)cc1 [Compound 12, N-(6-(3,5-difluorophenoxy)quinolin-8-yl)-4-methylbenzenesulfonamide] | 3.57 | 3.57 | 4110 | 80 |  |  | 
Cc1ccc(S(=O)(=O)Nc2ccc(Br)c3cccnc23)cc1 [Compound 1, N-(5-bromoquinolin-8-yl)-4-methylbenzenesulfonamide] | 0.84 |  |  |  |  |  | 
4-methoxy-N-(5-(pyridin-4-yl)quinolin-8-yl)benzenesulfonamide [Compound 23] |  | 0.58 | 1240 | 440 |  |  | 0.58

Results, then the compound that gave them:

IC50 [1, 3] [µM] | IC50 [1, 4] [µM] | IC50 [2] [nM] | IC50 (fibrosarcoma HT1080) [nM] | IC50 ([2]; Homo sapiens) [nM] | IC50 (fibrosarcoma HT1080; Homo sapiens, HT-1080) [nM] | IC50 [1, 5] [µM] | Compound
 |  |  |  |  |  | 8.02 | COc1ccc(S(=O)(=O)Nc2ccc(-c3ccccc3)c3cccnc23)cc1 [Compound 17, 4-methoxy-N-(5-phenylquinolin-8-yl)benzenesulfonamide]
 | 1.67 |  |  | 5240 | 1070 | 1.67 | O=S(=O)(Nc1ccc(-c2cccnc2)c2cccnc12)c1cccnc1 [Compound 25, N-(5-(pyridin-3-yl)quinolin-8-yl)pyridine-3-sulfonamide]
 | 0.17 |  |  | 910 | 400 | 0.17 | O=S(=O)(Nc1ccc(-c2cccnc2)c2cccnc12)c1cccc(C(F)(F)F)c1 [Compound 24, N-(5-(pyridin-3-yl)quinolin-8-yl)-3-(trifluoromethyl)benzenesulfonamide]
 | 1.21 |  |  | 5880 | 1070 | 1.21 | O=S(=O)(Nc1ccc(-c2ccncc2)c2cccnc12)c1cccnc1 [Compound 30, N-(5-(pyridin-4-yl)quinolin-8-yl)pyridine-3-sulfonamide]
 |  |  |  |  |  | 14.5 | CC(=O)Nc1ccc(S(=O)(=O)Nc2ccc(-c3cccnc3)c3cccnc23)cc1 [Compound 26, N-(4-(N-(5-(pyridin-3-yl)quinolin-8-yl)sulfamoyl)phenyl)acetamide]
 |  |  |  |  |  | 6.7 | O=S(=O)(Nc1ccc(-c2ccccc2)c2cccnc12)c1cccc(C(F)(F)F)c1 [Compound 18, N-(5-phenylquinolin-8-yl)-3-(trifluoromethyl)benzenesulfonamide]
 |  |  |  |  |  | 10.9 | O=S(=O)(Nc1ccc(-c2ccncc2)c2cccnc12)C1CC1 [Compound 28, N-(5-(pyridin-4-yl)quinolin-8-yl)cyclopropanesulfonamide]
 |  |  |  |  |  | 2.2 | O=S(=O)(Nc1ccc(-c2ccccc2)c2cccnc12)c1cccnc1 [Compound 19, N-(5-phenylquinolin-8-yl)pyridine-3-sulfonamide]
 |  |  |  |  |  | 15.1 | CS(=O)(=O)Nc1ccc(-c2cccnc2)c2cccnc12 [Compound 21, N-(5-(pyridin-3-yl)quinolin-8-yl)methanesulfonamide]
 |  |  |  |  |  | 6.55 | CC(=O)Nc1ccc(S(=O)(=O)Nc2ccc(-c3ccncc3)c3cccnc23)cc1 [Compound 31, N-(4-(N-(5-(pyridin-4-yl)quinolin-8-yl)sulfamoyl)phenyl)acetamide]
 |  |  |  |  |  | 7.6 | CC(=O)Nc1ccc(S(=O)(=O)Nc2ccc(-c3ccccc3)c3cccnc23)cc1 [Compound 20, N-(4-(N-(5-phenylquinolin-8-yl)sulfamoyl)phenyl)acetamide]
 |  |  |  |  |  | 12.1 | O=S(=O)(Nc1ccc(-c2ccccc2)c2cccnc12)C1CC1 [Compound 16, N-(5-phenylquinolin-8-yl)cyclopropanesulfonamide]
 |  |  |  |  |  | 7.16 | O=S(=O)(Nc1ccc(-c2cccnc2)c2cccnc12)C1CC1 [Compound 22, N-(5-(pyridin-3-yl)quinolin-8-yl)cyclopropanesulfonamide]

Reference: patent US10040766B2, “Ubiquitination inhibitors” (Rigel Pharmaceuticals, Inc., priority 2014, dated 2018)
